# Results taken from US20230066315A1, “COMPOUNDS AND USES THEREOF” (Nuvation Bio Inc., priority 2019, published 2023).
# Legend:
# [1] = biological target: T1, adenosine A2a (human) membrane (Homo sapiens, UniProt P29274); experiment: A2A adenosine receptor radioligand binding assay ([3H] CGS-21680); settings: radioligand [3H] CGS-21680 6 nM, RT 2 hours
# T1 construct: purchased PerkinElmer RBHA2AM400UA
# Method: A second A2A adenosine receptor radioligand binding assay protocol was used. The protocol used adenosine A2a (human) membrane (PerkinElmer RBHA2AM400UA) at a concentration of […]/well/100 μl and the radioligand [3H] CGS-21680 (Cat No. PerkinElmer-NET1021250UC) at a final concentration of 6 nM. Testing compounds were diluted with DMSO to make 8-point 4-fold serial dilution, starting at 0.2 mM. CGS-15943 was the reference compound. 1 μl of compounds/high control/low control was transferred to the assay plate according to a plate map, followed by 100 μl of membrane stocks and 100 μl of radioligand, in assay buffer (50 mM Tris-HCl, 10 mM MgCl2, 1 mM EDTA, pH 7.4). The plate was sealed and incubated at RT for 2 hours. Unifilter-96 GF/C filter plates (Perkin Elmer Cat #6005174) were soaked with 50 μl of 0.3% PEI per well for at least 0.5 hour at room temperature. When the binding assays were completed, the reaction mixtures were filtered through GF/C plates using Perkin Elmer Filtermate Harvester, and each plate washed 4 times with cold wash buffer (50 mM Tris-HCl, 154 mM NaCl, pH 7.4). The filter plates were dried for 1 hour at 50 degrees. After drying, the bottom of the filter plate wells was sealed, 50 μl of Perkin Elmer Microscint 20 cocktail was added, and the top of the filter plate was sealed. ^3H trapped on the filter was counted using Perkin Elmer MicroBeta2 Reader. The data were analyzed with GraphPad Prism 5 to obtain binding IC50 values. The “Inhibition [% Control]” was calculated using the equation: % Inh=(1−Background subtracted Assay value/Background subtracted HC value)*100, where HC is high control.
# [2] = biological target: T2, human recombinant adenosine A2A receptor (Homo sapiens, UniProt P29274); experiment: cAMP assay (Assay 2) in HEK-293 cells expressing A2A receptor; assay type: cell-based; settings: HEK-293 cells expressing human recombinant adenosine A2A receptor; reducing A2A cAMP levels
# T2 construct: expressed in transfected cells; host or cells: HEK-293
# T2 sequence (P29274 whole entry): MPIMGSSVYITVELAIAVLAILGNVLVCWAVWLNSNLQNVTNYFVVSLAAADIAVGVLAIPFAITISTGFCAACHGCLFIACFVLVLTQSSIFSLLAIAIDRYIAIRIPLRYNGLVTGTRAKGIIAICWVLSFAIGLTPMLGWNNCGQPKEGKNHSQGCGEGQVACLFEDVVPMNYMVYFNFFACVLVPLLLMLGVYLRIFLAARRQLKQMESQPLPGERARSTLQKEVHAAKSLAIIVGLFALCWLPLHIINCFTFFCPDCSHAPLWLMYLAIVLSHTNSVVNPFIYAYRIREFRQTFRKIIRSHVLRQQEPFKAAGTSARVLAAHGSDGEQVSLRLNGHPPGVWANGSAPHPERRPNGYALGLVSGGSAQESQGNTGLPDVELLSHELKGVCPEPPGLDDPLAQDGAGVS
# Method: The functional activity of compound 1.5 was tested using Assay 2 below, to detect the presence of cAMP. Assay 1 is an alternative assay for this purpose. Activation of G-protein coupled receptors (such as A2A) results in activation of adenylyl cyclase which converts ATP into cAMP which is used as a downstream signaling molecule. Molecules which act as GPCR (or specifically A2A receptor) antagonists cause a decrease in intracellular cAMP concentration.
# Assay 2 (Table B2): This assay used HEK-293 cells expressing human recombinant adenosine A2A receptor that were grown prior to the test in media without antibiotic. 100 nL of test articles at 100× of final concentration were transferred to assay plate by Echo. Cells were washed twice with 5 mL of PBS and 10 pL of cells were mixed with 5 mL PBS. After aspirating the PBS and adding 1.5 mL versine, cells were incubated at 37° C. for 2-5 min. After centrifugation, 4 mL of medium was added and adjusted cell density to 5,000 cells/well with Stimulation Buffer. 10 pL of cells were aliquoted to the assay plate, centrifuged at 1000 rpm for 1 minute, and incubated for 60 minutes at room temperature. 5 pL 4× Eu-cAMP tracer solution and 5 pL 4× Ulight™-anti-cAMP solution were added to assay plate, followed by centrifugation and 60-minute incubation at room temperature. Plates were read on EnVision. […]
# T1 sequence (P29274 whole entry): as above
IC50 [1],IC50 [2],Structure (SMILES)
5.5 nM,,"O=c1ccc2nc(-c3ccc4ncccc4c3)c(-c3ccccc3)nc2[nH]1 [Compound 1.4, 3-phenyl-2-(quinolin-6-yl)pyrido[2,3-b]pyrazin-6(5H)-one]"
958 nM,,"Cn1ccc(=O)c2nc(-c3ccc4ncccc4c3)c(-c3ccccc3)nc21 [Compound 1.8, 5-methyl-3-phenyl-2-(quinolin-6-yl)pyrido[2,3-b]pyrazin-8(5H)-one]"
6.6 nM,,"O=c1ccc2nc(-c3cc(Cl)c4ncccc4c3)c(-c3ccccc3)nc2[nH]1 [Compound 1.12, 2-(8-chloroquinolin-6-yl)-3-phenylpyrido[2,3-b]pyrazin-6(5H)-one]"
18 nM,325 nM,"O=c1cc[nH]c2nc(-c3ccccc3)c(-c3ccc4ncccc4c3)nc12 [Compound 1.5, 3-phenyl-2-(quinolin-6-yl)pyrido[2,3-b]pyrazin-8(5H)-one]"
